Source: PMC7925398, “Exploring the Therapeutic Potenital of the Leaderless Enterocins K1 and EJ97 in the Treatment of Vancomycin-Resistant Enterococcal Infection” (Frontiers in Microbiology, 2021)
Read-outs that look alike come from different tables or passages of the source. Where no end group is shown, it is not given here.

Key:
[1] = system: bacteriocin-resistant enterococcal cells (eep-mutants); conditions: colonies from inhibition zones of spot-on-lawn assay; 'mostly above'; cross-resistant
Description: Bacteriocin resistant mutants were obtained by a spot-on-lawn assay, where liquid bacteriocin was spotted on a lawn of indicator cells, using 10μl of bacteriocin in concentrations 0.5–5 mg/ml. The plates were incubated at 30°C overnight and resistant colonies were selected from the inhibition zones and re-streaked on new plates for isolated colonies. Pure cultures were made and stored in 15% glycerol at −80°C. The eep gene was PCR amplified and sequenced with specific primers: eep in E. faecium was amplified using primers Eepf4F + Eepf4R and sequenced using primers Eepf1R - Eepf6R and Eepf1F - Eepf6F. eep in E. faecalis was amplified using primers Eepfa1R + Eepfa3F and sequenced using primers Eepfa1R - Eepfa3R, Eepf1R - Eepf3R and Eepfa1F - Eepfa3F.
The samples were sent to GATC Biotech, Germany for sequencing. MIC of the resistant mutants was scored using a microtiter assay as previously described ([Holo et al., 1991]).

[2] = Antibacterial effect (MIC) after incubation in blood, plasma or saline; format: cell-based
Description: To test whether the antibacterial effect of the bacteriocins was reduced in blood, an assay was performed where whole blood was collected from two healthy volunteers, with EDTA as an anticoagulant. Directly after blood sampling each bacteriocin was added to a concentration of 1mg/ml. […] Samples were collected at specific time points and bacteriocin activity was determined using the standard MIC assay as previously described ([Holo et al., 1991]). The experiment was repeated three times and the error bars represent the standard deviation.
The presented MIC values are the average of three experiments. Each bacteriocin was added to whole human blood to reach a concentration of 1 mg/ml. […] RT is short for room temperature.

E. faecalis = conditions: MIC = at least 50% growth inhibition, three parallels
Description: Unless otherwise specified the bacterial strains were grown in brain heart infusion (BHI) medium (Oxoid) at 37°C under aerobic conditions without shaking.
The peptides were stored at −20°C until use. The amino acid sequences of the bacteriocins are […] RPVA and […] […] Bacteriocin activity was determined using a microtiter assay as previously described ([Holo et al., 1991]).

human erythrocytes = assay: Haemolysis assay; conditions: 37°C
Description: To assess the haemolytic effect whole blood was drawn from two healthy human volunteers, pooled and distributed in 1 ml aliquots. The aliquots were spun down at 1,000 × g for 5 min at 4°C to separate erythrocytes from plasma. The erythrocytes were washed three times with saline (0.9% NaCl) and resuspended in 100 μl saline. […] SDS in saline was added as a control, since bacteriocins were solved in saline. The samples were incubated at 37°C for 1 h and then spun down again to remove intact erythrocytes. The supernatant was measured for absorbance at 540 nm in order to measure degree of haemolysis. […] The experiment was repeated three times to allow for statistical analysis.
Whole human blood was mixed with each bacteriocin in saline to a final concentration of 1, 0.1, and 0.01 mg/ml. The samples were incubated at 37°C before the erythrocytes were spun down and the supernatant was read at OD540.

[3] = system: E. faecalis D6 and E. faecalis MMH594; assay: Effect of autoclaving on antibacterial activity, E. faecalis; format: cell-based, Enterococcus faecalis; conditions: in MilliQ water with 0.1% TFA, standard autoclaving; MIC against E. faecalis D6 and MMH594
Source text: A pre-requisite for intravenous administration is complete sterility of the compound ([Paese et al., 2017]). The simplest manner to achieve this is through autoclaving. However, this can cause degradation of the compound and therefore be detrimental to the antibacterial effect. Also, if the compound is degraded into unknown constituents this may cause unintended interactions. Therefore, we exposed the bacteriocins to a standard autoclaving procedure.
Each bacteriocin was solved in MilliQ water with 0.1% TFA and then autoclaved. […] Strains: 20705 is short for E. faecium LMGT 20705; 0237 for E. faecium 42 ACA-D6 0237; D6 for E. faecalis D6; and MMH594 for E. faecalis MMH594.

In the case of “MLAKIKAMIKKFPNPYTLAAKLTTYEINWYKQQYGRYPWERPVA [EntEJ97, enterocin EJ97]”, the “MIC against cells from resistant colonies” value [1] is reported as “above 25 μg/ml”, the “MIC in plasma after 8 h” value ([2]; human plasma, 8 h incubation at 37°C, average of three experiments) is reported as 0.78 µg/mL and the “MIC in plasma at 48 h” value ([2]; human plasma, 48 h incubation at 37°C, average of three experiments) is reported as 1.56 µg/mL. For the same sequence, the “MIC in saline after 8 h” value ([2]; saline, 8 h incubation at 37°C, average of three experiments) was 0.39 µg/mL, the “MIC in saline at 48 h” value ([2]; saline, 48 h incubation at 37°C, average of three experiments) was 0.78 µg/mL and the “MIC in blood after 8 h” value ([2]; whole human blood (EDTA), 1 mg/ml, 8 h incubation at 37°C, average of three experiments) was 1.56 µg/mL. For the same sequence, the “MIC in blood at 48 h” value ([2]; whole human blood (EDTA), 1 mg/ml, 48 h incubation at 37°C, average of three experiments) was 3.125 µg/mL, the “MIC in blood compared to saline (fold higher)” value ([2]; whole human blood vs saline, 37°C) was 2 × and the “MIC of EntEJ97” value (E. faecalis; strain 62 (L, laboratory)) was 1.56 µg/mL. The “MIC of EntEJ97” value (E. faecalis; strain D6 (L, laboratory)) was 0.39 µg/mL, the “MIC of EntEJ97” value (E. faecalis; strain HH22 (N, nosocomial)) was 1.56 µg/mL and the “MIC of EntEJ97” value (E. faecalis; strain MMH594 (N, nosocomial)) was 0.39 µg/mL. The “MIC of EntEJ97” value (E. faecalis; strain Merz96 (N, nosocomial)) was 0.78 µg/mL, the “MIC of EntEJ97” value (E. faecalis; strain OG1RF (L, laboratory)) was 0.78 µg/mL and the “MIC of EntEJ97” value (E. faecalis; strain Symbioflor (B, probiotic)) was 0.39 µg/mL. For the same sequence, the “MIC of EntEJ97” value (E. faecalis; strain T3 (N, nosocomial)) was 0.39 µg/mL, the “MIC of EntEJ97” value (E. faecalis; strain TX0104 (N, nosocomial)) was 0.39 µg/mL and the “MIC of EntEJ97” value (E. faecalis; strain V583 (N, nosocomial; carries EntEJ97 immunity gene)) was >25 µg/mL. The “Visual haemolysis (redness of supernatant compared to saline)” value (human erythrocytes; 1 mg/ml in saline) was “did not cause haemolysis”, the Haemolysis of erythrocytes (human erythrocytes; 0.01, 0.1 and 1 mg/ml in saline, washed human erythrocytes (two volunteers, pooled), 1 h, supernatant absorbance 540 nm, repeated three times) was “non-haemolytic” and the “Effect of autoclaving on MIC” value [3] was “did not affect”.
